The target in experiment [1] is T1, human TLR7 (wild type sequence) (Homo sapiens, UniProt Q9NYK1).
T1 construct: expressed in transfected cells; host or cells: HEK293
T1 sequence (Q9NYK1 27-1049): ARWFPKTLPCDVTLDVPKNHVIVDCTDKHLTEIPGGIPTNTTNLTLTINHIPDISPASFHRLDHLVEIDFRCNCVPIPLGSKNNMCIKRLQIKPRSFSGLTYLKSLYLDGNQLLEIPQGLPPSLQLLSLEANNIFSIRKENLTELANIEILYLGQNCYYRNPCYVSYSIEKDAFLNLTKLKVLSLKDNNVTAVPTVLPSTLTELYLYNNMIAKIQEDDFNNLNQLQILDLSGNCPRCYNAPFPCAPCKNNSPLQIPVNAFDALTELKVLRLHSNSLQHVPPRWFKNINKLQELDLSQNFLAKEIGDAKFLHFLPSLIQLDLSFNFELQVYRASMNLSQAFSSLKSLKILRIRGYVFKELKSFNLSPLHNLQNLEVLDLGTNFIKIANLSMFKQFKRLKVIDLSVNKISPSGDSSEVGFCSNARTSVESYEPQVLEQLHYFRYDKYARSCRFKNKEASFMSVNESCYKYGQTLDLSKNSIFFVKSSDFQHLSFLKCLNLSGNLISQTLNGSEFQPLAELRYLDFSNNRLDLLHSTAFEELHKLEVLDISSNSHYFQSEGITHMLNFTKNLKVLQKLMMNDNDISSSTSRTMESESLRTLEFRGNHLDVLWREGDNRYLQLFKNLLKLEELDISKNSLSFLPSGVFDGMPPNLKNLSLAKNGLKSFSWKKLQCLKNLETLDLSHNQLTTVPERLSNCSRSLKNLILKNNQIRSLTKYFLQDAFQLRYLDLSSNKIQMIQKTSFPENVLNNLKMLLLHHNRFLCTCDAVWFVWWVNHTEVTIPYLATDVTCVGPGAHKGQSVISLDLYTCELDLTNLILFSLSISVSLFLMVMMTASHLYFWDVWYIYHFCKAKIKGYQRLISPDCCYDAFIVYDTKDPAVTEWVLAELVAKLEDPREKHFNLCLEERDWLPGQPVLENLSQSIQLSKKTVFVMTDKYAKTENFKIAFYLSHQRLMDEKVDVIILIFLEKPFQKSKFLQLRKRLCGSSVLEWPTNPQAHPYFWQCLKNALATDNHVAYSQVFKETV
Kind of experiment: TLR7 cellular NFκB-luc reporter assay, wild type TLR7. Type of experiment: cell-based. Further details: unit not given here. The conditions noted are these: lowest effective concentration, wild type TLR7 (compounds 74 onward). As to the method:
(§1) The ability of compounds to activate human TLR7 and/or TLR8 was assessed in a cellular reporter assay using HEK293 cells transiently transfected with a TLR7 or TLR8 expression vector and NFκB-luc reporter construct. In one instance the TLR expression construct expresses the respective wild type sequence or a mutant sequence comprising a deletion in the second leucine-rich repeat of the TLR.
(§2) Briefly, HEK293 cells were grown in culture medium (DMEM supplemented with 10% FCS and 2 mM Glutamine). For transfection of cells in 10 cm dishes, cells were detached with Trypsin-EDTA, transfected with a mix of CMV-TLR7 or TLR8 plasmid (750 ng), NFκB-luc plasmid (375 ng) and a transfection reagent and incubated for 48 hours at 37° C. in a humidified 5% CO2 atmosphere. Transfected cells were then detached with Trypsin-EDTA, washed in PBS and resuspended in medium to a density of 1.67×10^5 cells/mL. Thirty microliters of cells were then dispensed into each well in 384-well plates, where 10 μL of compound in 4% DMSO was already present. Following 6 hours incubation at 37° C., 5% CO2, the luciferase activity was determined by adding 15 μl of Steady Lite Plus substrate (Perkin Elmer) to each well and readout performed on a ViewLux ultraHTS microplate imager (Perkin Elmer). Dose response curves were generated from measurements performed in quadruplicates. Lowest effective concentrations (LEC) values, defined as the concentration that induces an effect which is at least two fold above the standard deviation of the assay, were determined for each compound.
(In general: A reporter such as luciferase makes a cellular process visible.)

In experiment [2] the target is T2, human TLR8 (wild type sequence) (Homo sapiens, UniProt Q9NR97).
T2 construct: expressed in transfected cells; host or cells: HEK293
T2 sequence (Q9NR97 27-1041): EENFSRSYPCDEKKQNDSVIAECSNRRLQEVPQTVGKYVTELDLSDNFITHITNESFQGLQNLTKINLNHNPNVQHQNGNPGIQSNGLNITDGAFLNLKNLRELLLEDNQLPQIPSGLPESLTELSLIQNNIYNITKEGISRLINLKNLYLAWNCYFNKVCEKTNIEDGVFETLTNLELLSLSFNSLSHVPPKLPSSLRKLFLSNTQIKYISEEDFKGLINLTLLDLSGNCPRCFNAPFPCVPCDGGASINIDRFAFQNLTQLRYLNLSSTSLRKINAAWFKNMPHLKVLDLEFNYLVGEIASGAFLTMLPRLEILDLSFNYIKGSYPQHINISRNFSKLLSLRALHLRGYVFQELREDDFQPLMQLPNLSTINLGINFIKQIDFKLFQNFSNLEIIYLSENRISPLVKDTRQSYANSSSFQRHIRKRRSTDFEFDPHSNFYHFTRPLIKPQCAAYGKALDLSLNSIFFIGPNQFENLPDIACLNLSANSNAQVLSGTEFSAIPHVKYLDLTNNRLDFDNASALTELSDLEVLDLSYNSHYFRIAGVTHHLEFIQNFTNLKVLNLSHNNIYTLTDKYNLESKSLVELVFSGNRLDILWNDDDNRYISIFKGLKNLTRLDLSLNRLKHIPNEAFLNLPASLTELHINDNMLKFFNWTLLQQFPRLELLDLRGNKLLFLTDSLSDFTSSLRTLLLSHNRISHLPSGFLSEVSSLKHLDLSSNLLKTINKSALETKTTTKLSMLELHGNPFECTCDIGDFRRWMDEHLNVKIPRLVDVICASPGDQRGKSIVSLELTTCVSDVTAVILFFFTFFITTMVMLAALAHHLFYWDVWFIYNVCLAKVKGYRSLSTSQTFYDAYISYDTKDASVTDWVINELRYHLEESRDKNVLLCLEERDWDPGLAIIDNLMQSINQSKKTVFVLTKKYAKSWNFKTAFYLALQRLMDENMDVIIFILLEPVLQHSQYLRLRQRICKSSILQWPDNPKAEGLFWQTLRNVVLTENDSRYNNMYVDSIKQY
Kind of experiment: TLR8 cellular NFκB-luc reporter assay, wild type TLR8. Type of experiment: cell-based. Also noted: unit not given here. The note with it: lowest effective concentration, wild type TLR8 (compounds 74 onward). As to the method: as §1, §2

In experiment [3] the test system is HCV replicon in Huh-7 luc/neo cells. Kind of experiment: Suppression of HCV replicon replication by conditioned media from compound-treated PBMC. Type of experiment: cell-based, HCV type 1 b. The note with it: Hepatitis C virus; conditioned media from compound-treated PBMC on Huh-7 luc/neo replicon cells (compounds 74 onward); read-out: PBMC HUH-7 EC50. As to the method: Activation of human TLR7 results in robust production of interferon by plasmacytoid dendritic cells present in human blood. The potential of compounds to induce interferon was evaluated by looking at the antiviral activity in the HCV replicon system upon incubation with conditioned media from peripheral blood mononuclear cells (PBMC). […] The assay utilized the stably transfected cell line Huh-7 luc/neo harboring an RNA encoding a bicistronic expression construct comprising the wild type NS3-NS5B regions of HCV type 1 b translated from an Internal Ribosome Entry Site (IRES) from encephalomyocarditis virus (EMCV), preceded by a reporter gene (Firefly-luciferase) and a selectable marker gene (neoR, neomycine phosphotransferase). The construct is flanked by 5′ and 3′ NTRs (non-translated regions) from HCV type 1 b. Continued culture of the replicon cells in the presence of G418 (neoR) is dependent on the replication of the HCV RNA. The stably transfected replicon cells that replicate HCV RNA autonomously and to high levels, encoding inter alia luciferase, were used for profiling of the conditioned cell culture media.
Briefly, PBMCs were prepared from buffy coats of at least two donors using a standard Ficoll centrifugation protocol. Isolated PBMCs were resuspended in RPMI medium supplemented with 10% human AB serum and 2×10^5 cells/well were dispensed into 384-well plates containing compounds (70 μL total volume). After overnight incubation, 10 μL of supernatant was transferred to 384-well plates containing 2.2×10^3 replicon cells/well in 30 μL (plated the day before). Following 24 hours of incubation, replication was measured by assaying luciferase activity using 40 μL/well Steady Lite Plus substrate (Perkin Elmer) and measured with ViewLux ultraHTS microplate imager (Perkin Elmer). […] Recombinant interferon α-2a (Roferon-A) was used as a standard control compound.
On the technique in general: In antiviral work, replicon cells carry a viral genome segment that copies itself.

Bounds are passed on as bounds.

This note sets out measurements from patent US11541050B2, “Pyrimidine derivatives for the treatment of viral infections” (JANSSEN SCIENCES IRELAND UC, priority 2011, dated 2023).

What is called EC50 is the concentration at which the effect is half-maximal. As to `CCCCNc1nc(N)ncc1OCCCc1ccc(OC)c(OC)c1` [Compound 74], the “TLR 7 wt LEC” value in experiment [1] was 0.713. In experiment [2], the “TLR 8 wt LEC” value stood at 1.720. In addition, the EC50 in experiment [3] was found to be 157 nM.
On the same counts, the results for `CCCC[C@@H](CCO)Nc1nc(N)ncc1OCc1ncc(C)c(OC)c1C` [Compound 75] are 0.023, 0.218 and 7 nM.
In the same order, the values of `CCCC[C@H](Nc1nc(N)ncc1OCCCc1ccccc1)C(=O)OC` [Compound 82] are 4.420, 13.590 and 14000 nM.
On the same counts, the results for `CCCCNc1nc(N)ncc1OCCOCc1ccccc1` [Compound 83] are 0.997, 1.610 and 204 nM.
As to `CCCCNc1nc(N)ncc1OCCOc1ccncc1` [Compound 84], in experiment [1], the “TLR 7 wt LEC” value is reported as 0.860. Moreover, in experiment [2], the “TLR 8 wt LEC” value came to 0.250. Moreover, in experiment [3], the EC50 came to 76 nM.
In the same order, the values of `CCCCNc1nc(N)ncc1OCc1nn(C)c(C)c1N` [Compound 85] are 0.509, 2.960 and 209 nM.
In the same order, the values of `CCC[C@@H](CCO)Nc1nc(N)ncc1OCc1nccc(OC)c1OC` [Compound 87] are 0.013, 0.567 and 12 nM.
`CCC(CO)Nc1nc(N)ncc1OC` (stereo not shown) [Compound 92]: the “TLR 7 wt LEC” value in experiment [1] was more than 25. Moreover, the “TLR 8 wt LEC” value in experiment [2] was 14.570. Moreover, the EC50 in experiment [3] came out at 20200 nM.
On the same counts, the results for `CCCCNc1nc(N)ncc1OCC(=O)c1ccc(OC)cc1` [Compound 94] are 1.590, 3.170 and 696 nM.
On the same counts, the results for `CCCCNc1nc(N)ncc1OCc1ccc(F)cc1` [Compound 95] are 2.730, 2.010 and 726 nM.
`CCCCCNc1nc(N)ncc1OC(C)c1ccccc1` (stereo not shown) [Compound 96]: in experiment [1], the “TLR 7 wt LEC” value is more than 25. Moreover, in experiment [2], the “TLR 8 wt LEC” value is on record as 6.340. Further, the EC50 in experiment [3] was found to be 4310 nM.
In the same order, the values of `COc1cnc(N)nc1NCCCCF` [Compound 97] are 21.810, 5.070 and 2640 nM.
For the compound `CCCCNc1nc(N)ncc1O[C@H](C)c1ccccc1` [Compound 98], in experiment [1], the “TLR 7 wt LEC” value is more than 25. In addition, the “TLR 8 wt LEC” value in experiment [2] was 10.100. Further, the EC50 in experiment [3] was determined as 22000 nM.
In the case of `CCCCNc1nc(N)ncc1O[C@@H](C)c1ccccc1` [Compound 99], in experiment [1], the “TLR 7 wt LEC” value was 8.980. Besides, in experiment [2], the “TLR 8 wt LEC” value is on record as 1.820. The EC50 in experiment [3] stood at 1280 nM.
In the same order, the values of `CCCCNc1nc(N)ncc1OCC1CCCO1` (stereo not shown) [Compound 100] are 18.950, 6.160 and 5120 nM.
On the same counts, the results for `CCCCNc1nc(N)ncc1OCc1ccccn1` [Compound 101] are 0.277, 0.597 and 55 nM.
In the same order, the values of `CCCCNc1nc(N)ncc1OCc1cncn1[C@H](C)c1ccccc1` [Compound 102] are 0.141, 5.690 and 12 nM.
Consider `CCCCNc1nc(N)ncc1OCc1cccc(C(=O)c2ccccc2)c1` [Compound 103], for which the “TLR 7 wt LEC” value in experiment [1] was found to be 1.190. Further, the “TLR 8 wt LEC” value in experiment [2] was 1.270. For the same compound, the EC50 in experiment [3] stood at 725 nM.
For the compound `CCCCNc1nc(N)ncc1OCC(C)(O)CC` (stereo not shown) [Compound 104], the “TLR 7 wt LEC” value in experiment [1] is more than 25. Further, in experiment [2], the “TLR 8 wt LEC” value is 12.390. For the same compound, in experiment [3], the EC50 is more than 23800 nM.
In the same order, the values of `CCCCNc1nc(N)ncc1OCC(C)(C)O` [Compound 105] are more than 25, 22.020 and 19000 nM.
As for `CCCC(COC)Nc1nc(N)ncc1OC` (stereo not shown) [Compound 106], in experiment [1], the “TLR 7 wt LEC” value was 16.100. For the same compound, the “TLR 8 wt LEC” value in experiment [2] is 5.940. The EC50 in experiment [3] came to 3150 nM.
As to `CCCCNc1nc(N)ncc1OCCCCCc1ccccc1` [Compound 111], in experiment [1], the “TLR 7 wt LEC” value worked out at 0.257. Further, the concentration for a half-maximal effect (EC50) in experiment [3] worked out at 96 nM.
In the same order, the values of `CCCCNc1nc(N)ncc1OCCCc1ccc(C(F)(F)F)cc1` [Compound 153] are 10.640 and 3430 nM.
